Results taken from US20100215620A1, “THE CO-CULTURE METHOD OF SPHINGOMONAS SP. BACTERIAL STRAIN AND ASPERGILLUS SP. FUNGUS STRAIN, NEW ANTI-CANCER AND ANTIBIOTIC GLIONITRINS DERIVED FROM THIS CO-CULTURE METHOD, AND PHARMACEUTICAL COMPOSITION CONTAINING GLIONITRINS OR PHARMACEUTICALLY ACCEPTABLE SALT THEREOF AS AN ACTIVE INGREDIENT” (KOREA INSTITUTE OF SCIENCE AND TECHNOLOGY, priority 2007, published 2010).
≈ marks a conversion by molar mass, not a printed value. Where two headings read alike, the source gives them in different places.

What was measured:
[1] = system: Micrococus leuteus IFC 12708[G(+)]; assay: Antibacterial MIC, broth dilution, OD600; format: cell-based, Micrococcus leuteus; settings: Micrococcus
Experimental: (§1) The present inventors also investigated antibacterial effect of glionitrin A and glionitrin B using Micrococcus leuteus IFC 12708, Bacillus subtilis ATCC 6633, Proteus vulgaris ATCC 3851, Salmonella typhimurium ATCC 1 4028 and 3 MRSA strains, Staphylococcus aureus ATCC 43300, S. aureus ATCC 700787 and S. aureus ATCC 700788 distributed from American Type Culture Collection (ATCC, Manassas, Va., USA). […] Then, the medium was eliminated and 100 μl of medium containing 10^5 cfu/mL of each strain was loaded in each well of a 96-well plate. Glionitrin diluted at different concentrations was added thereto, followed by culture at 37° C. for 24 hours. 24 hours later, OD600 was measured.

[2] = system: Aspergillus fumigatus HIC 6094 and Trichophyton rubrum IFO 9185; assay: Antifungal MIC; format: cell-based
Text: (§2) The present inventors also evaluated antifungal activity of glionitrins A and B against those strains distributed from American Type Culture Collection (ATCC, Manassas, Va., USA) such as Aspergillus fumigatus HIC 6094 and Trichophyton rubrum IFO 9185. […] To determine MIC of glionitrin for those two fungus strains, spores of the fungus strains were suspended in sterilized distilled water at the density of 10^5 spores/mL and the density was adjusted by using Sabouraud glucose liquid medium (Difco) to 10^3 cells/mL. Then, the cells were distributed in a 96-well plate at the density of 10^2 cells/100 μl/well, to which glionitrin was added at different concentrations, followed by culture at 28° C. for […]. The concentration of glionitrin at which no fungi growth was confirmed was determined as MIC.

[3] = Stability of glionitrin A in solution at room temperature; format: physicochemical; settings: water, acetonitrile aqueous solution, methanol aqueous solution or DMSO
Text: The chemical structures of the separated compounds were identified by using MS and nuclear spectrometer. As a result, it was confirmed that glionitrin A was amorphous light yellow powder represented by the molecular formula of C13H11N3O5S2 which had the molecular weight of 353, and glionitrin B was colorless mucous semi-solid material represented by the molecular formula of C15H17N3O5S2 which had the molecular weight of 383.
The present inventors performed instrumental analysis with glionitrins to determine the chemical formulas of glionitrin A and glionitrin B. The separated glionitrin A was left in water or DMAO at room temperature. […] Glionitrin A was measured in chloroform-d solvent and glionitrin B was measured in methanol-d4 solvent.

[4] = system: Trichophyton rubrum IFO 9185; assay: Antifungal MIC, Sabouraud glucose liquid medium; format: cell-based
Text: as §2

[5] = system: Aspergillus fumigatus HIC 6094; assay: Antifungal MIC, Sabouraud glucose liquid medium; format: cell-based
Text: as §2

[6] = system: AGS (stomach cancer, ATCC CRL-1739); assay: In vitro MTT cytotoxicity assay; format: cell-based; settings: 24 h
Experimental: (§3) The present inventors investigated cytotoxic effect of glionitrin on cancer cells with in vitro MTT (3-[4,5-dimethylthiazol-2-yl]-2,5-diphenyltrazdium bromide) assay to quantify live cancer cells. Cancer cell cytotoxicity of glionitrin was evaluated using AGS (stomach cancer, ATCC CRL-1739™), HepG2 (liver cancer, HB-8065™), HCT116 (colon cancer, CCL-247™), A549 (lung cancer, CCL-185™) and DU145 (prostatic cancer, HTB-81™) distributed from American Type Culture Collection (ATCC, Manassas, Va., USA). Stomach cancer (AGS), liver cancer (HepG2), colon cancer (HCT-116), lung cancer (A549) or prostatic cancer (DU-145) cells were distributed in a 96-well plate at the density of 1×10^4 cells/100 μl/well, followed by culture in a 37° C., CO2 incubator for 24 hours. Then, the medium was replaced with a fresh one containing glionitrin, followed by culture at 37° C. 24 hours later, MTT solution was added thereto by 10 μl/well, followed by further culture for 1 hour at 37° C. One hour later, formazane generated by reductase in live cells was quantified by measuring OD450.

[7] = system: HCT-116 (colon cancer, CCL-247); assay: In vitro MTT cytotoxicity assay; format: cell-based; settings: Homo sapiens, HCT-116, 24 h
Experimental: as §3

[8] = system: A549 (lung cancer, CCL-185); assay: In vitro MTT cytotoxicity assay; format: cell-based; settings: Homo sapiens, A549, 24 h
Experimental: as §3

[9] = system: DU-145 (prostatic cancer, HTB-81); assay: In vitro MTT cytotoxicity assay; format: cell-based; settings: Homo sapiens, DU-145, 24 h
Experimental: as §3

[10] = system: HepG2 (liver cancer, HB-8065); assay: In vitro MTT cytotoxicity assay; format: cell-based; settings: Homo sapiens, HepG2, 24 h
Experimental: as §3

[11] = system: Staphylococcu aureus ATCC 4330(MRSA); assay: Antibacterial MIC, broth dilution, OD600; format: cell-based; settings: Staphylococcus aureus, 24 h
Experimental: as §1

[12] = system: Proteus vulgaris ATCC 3851[G(−)]; assay: Antibacterial MIC, broth dilution, OD600; format: cell-based
Experimental: as §1

[13] = system: Bacillus subtilis ATCC 6633 [G(+)]; assay: Antibacterial MIC, broth dilution, OD600; format: cell-based
Experimental: as §1

[14] = system: Salmonella typhimurium ATCC 14028[G(−)]; assay: Antibacterial MIC, broth dilution, OD600; format: cell-based; settings: Salmonella enterica
Experimental: as §1

[15] = system: S. aureus ATCC 700787(MRSA); assay: Antibacterial MIC, broth dilution, OD600; format: cell-based; settings: Staphylococcus aureus, 24 h
Experimental: as §1

[16] = system: S. aureus ATCC 700788(MRSA); assay: Antibacterial MIC, broth dilution, OD600; format: cell-based; settings: Staphylococcus aureus
Experimental: as §1

MCF-7 = assay: In vitro MTT cytotoxicity assay; format: cell-based; settings: Homo sapiens, MCF7
4 non-resistant strains = assay: Antibacterial MIC; format: cell-based
Experimental: as §1

3 MRSA strains = assay: Antibacterial MIC; format: cell-based, Staphylococcus aureus; settings: against 3 MRSA strains
Experimental: as §1

7 bacterial strains = assay: Antibacterial activity, text summary for the 7 bacterial strains; format: cell-based; settings: every experimental group (7 bacterial strains)
Experimental: as §1

[17] = Micrococus leuteus IFC 12708, 37° C., 24 hours, read-out: MIC
[18] = ATCC3851, Proteus vulgaris ATCC 3851, 37° C., 24 hours, read-out: MIC
[19] = ATCC6633, Bacillus subtilis ATCC 6633, 37° C., 24 hours, read-out: MIC
[20] = Salmonella typhimurium ATCC 14028, 37° C., 24 hours, read-out: MIC

CN1C(=O)C23Cc4ccc([N+](=O)[O-])cc4N2C(=O)C1(CO)SS3 (stereo not shown) [glionitrin A]
MIC ([1]; 24 h): 0.78 µg/mL (≈ 2.21 µM) | MIC ([2]; read-out: MIC (antifungal activity)): 12.5 µg/mL (≈ 35.4 µM) | stability in solution [3]: trisulfide (glionitrin C) and tetrasulfide (glionitrin D) were generated | MIC ([4]; Trichophyton rubrum, IFO9185): 12.5 µg/mL (≈ 35.4 µM) | MIC ([5]; Aspergillus fumigatus, HIC6094): 12.5 µg/mL (≈ 35.4 µM) | IC50 [6]: 0.45 ± 0.11 µM | IC50 [7]: 0.82 ± 0.11 µM | IC50 [8]: 0.55 ± 0.07 µM | IC50 [9]: 0.24 ± 0.02 µM | IC50 [10]: 2.28 ± 0.3 µM | MIC [11]: 0.78 µg/mL (≈ 2.21 µM) | MIC ([12]; Proteus vulgaris, ATCC3851, 24 h): 3.13 µg/mL (≈ 8.86 µM) | MIC ([13]; Bacillus subtilis, ATCC6633, 24 h): 6.25 µg/mL (≈ 17.7 µM) | MIC ([14]; 24 h): 3.13 µg/mL (≈ 8.86 µM) | MIC [15]: 0.78 µg/mL (≈ 2.21 µM) | MIC ([16]; 24 h): 0.78 µg/mL (≈ 2.21 µM) | IC50 (MCF-7): > 2 µM | MIC (4 non-resistant strains): 0.78 to 3.13 µg/mL (≈ 2.21 to 8.86 µM) | MIC (3 MRSA strains; Staphylococcus aureus): 0.78 µg/mL (≈ 2.21 µM) | antibacterial activity relative to ampicillin (3 MRSA strains; versus positive control ampicillin): 15 times

CC1(C)S[C@@H]2[C@H](NC(=O)[C@H](N)c3ccccc3)C(=O)N2[C@H]1C(=O)O [ampicillin, reference compound]
MIC [1, 17]: 0.78 µg/mL (≈ 2.23 µM) | MIC [11]: 12.5 µg/mL (≈ 35.8 µM) | MIC [12, 18]: 1.56 µg/mL (≈ 4.46 µM) | MIC [13, 19]: 3.13 µg/mL (≈ 8.96 µM) | MIC [14, 20]: 12.5 µg/mL (≈ 35.8 µM) | MIC [15]: 12.5 µg/mL (≈ 35.8 µM) | MIC ([16]; S. aureus ATCC 700788 (MRSA), 37° C., 24 hours, read-out: MIC): 25 µg/mL (≈ 71.5 µM)

C[C@@H]1[C@H](O)[C@@H](C)/C=C/C=C/C=C/C=C/C=C/C=C/C=C/[C@H](O[C@@H]2O[C@H](C)[C@@H](O)[C@H](N)[C@@H]2O)C[C@@H]2O[C@](O)(C[C@@H](O)C[C@@H](O)[C@H](O)CC[C@@H](O)C[C@@H](O)CC(=O)O[C@H]1C)C[C@H](O)[C@H]2C(=O)O [amphotericin B, reference compound]
MIC ([4]; Trichophyton rubrum IFO 9185, 28° C.): 1.56 µg/mL (≈ 1.69 µM) | MIC ([5]; Aspergillus fumigatus HIC 6094, 28° C.): 1.56 µg/mL (≈ 1.69 µM)

CSC1(CO)C(=O)N2c3cc([N+](=O)[O-])ccc3CC2(SC)C(=O)N1C (stereo not shown) [glionitrin B]
MIC [1, 17]: > 100 µg/mL | antifungal activity ([2]; Aspergillus fumigatus HIC 6094 and Trichophyton rubrum IFO 9185): did not show antifungal activity | MIC ([4]; IFO9185, Trichophyton rubrum IFO 9185, 28° C., read-out: MIC): > 50 µg/mL | MIC ([5]; HIC6094, Aspergillus fumigatus HIC 6094, 28° C., read-out: MIC): > 50 µg/mL | IC50 ([6]; AGS, MTT, read-out: IC50): 1.25 ± 0.2 µM | IC50 ([7]; MTT, read-out: IC50): 3.28 ± 0.55 µM | IC50 ([8]; MTT, read-out: IC50): 2.25 ± 0.25 µM | IC50 ([9]; MTT, read-out: IC50): 2.29 ± 0.14 µM | IC50 ([10]; MTT, read-out: IC50): > 2 µM | MIC [11]: > 50 µg/mL | MIC [12, 18]: > 50 µg/mL | MIC [13, 19]: > 100 µg/mL | MIC [14, 20]: > 50 µg/mL | MIC [15]: > 50 µg/mL | MIC ([16]; 24 h): > 50 µg/mL | IC50 (MCF-7; MCF-7, MTT, read-out: IC50): > 2 µM | antibacterial activity (7 bacterial strains): no antibacterial activity at all
